MIC data for five molecules are collected here from patent US20260274892A1, “MACROCYCLIC BROAD SPECTRUM ANTIBIOTICS” (RQx Pharmaceuticals, Inc., priority 2017, published 2026).

The subject of the assay is Escherichia coli ATCC 25922. Kind of assay: Minimum inhibitory concentration (MIC), CLSI broth micro-dilution, E. coli. The following applies: Escherichia coli. The format is cell-based. The method in brief:
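Colonies grown 20 h at 35° C on Trypticase Soy agar (MRSA) or Luria agar (E. coli) were suspended in cation-adjusted Mueller Hinton broth with 0.002% Tween-80. Suspensions were added at OD600 0.0005 to 10-point twofold compound dilutions, then incubated 22 h at 35° C.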
Background: In broth dilution the organism is exposed to a series of concentrations in liquid medium.

The mark [1] stands for this setting: ATCC25922, 22 h, Table 7, cation adjusted Mueller Hinton Broth + 0.002% Tween-80, 35° C.

Each structure is given as a SMILES string.

With `Cc1nc(-c2ccc(C(C)(C)C)cc2)nc(C)c1C(=O)N[C@@H](CCN)C(=O)N(C)[C@@H]1C(=O)N[C@@H](C)C(=O)N[C@H](C(=O)NCC#N)Cc2cc(OCCN)c(O)c(c2)-c2cc1ccc2OC[C@H](O)CN` (racemic) [Compound 594, rac-(8S,11S,14S)-4-(2-aminoethoxy)-N-(cyanomethyl)-3-hydroxy-11-methyl-14-[methyl-[rac-(2S)-4-amino-2-[[2-(4-tert-butylphenyl)-4,6-dimethyl-pyrimidine-5-carbonyl]amino]butanoyl]amino]-10,13-dioxo-18-[rac-(2R)-3-amino-2-hydroxy-propoxy]-9,12-diazatricyclo[13.3.1.12,6]icosa-1(18),2(20),3,5,15(19),16-hexaene-8-carboxamide], for the setting “ATCC25922, Table 7, cation adjusted Mueller Hinton Broth + 0.002% Tween-80, 35° C., 22 hours”, the MIC – broadly, the lowest concentration that inhibits growth of the organism – turned out to be 0.13 µM. Consider `Cc1nc(-c2ccc(C(C)(C)C)cc2)nc(C)c1C(=O)N[C@@H](CCN)C(=O)N(C)[C@@H]1C(=O)N[C@@H](C)C(=O)N[C@H](C(=O)NCC#N)Cc2ccc(O)c(c2)-c2cc1ccc2OCCNC(=N)N` (racemic) [Compound 595, rac-(8S,11S,14S)-N-(cyanomethyl)-18-(2-guanidinoethoxy)-3-hydroxy-11-methyl-14-[methyl-[rac-(2S)-4-amino-2-[[2-(4-tert-butylphenyl)-4,6-dimethyl-pyrimidine-5-carbonyl]amino]butanoyl]amino]-10,13-dioxo-9,12-diazatricyclo[13.3.1.12,6]icosa-1(18),2(20),3,5,15(19),16-hexaene-8-carboxamide], for which the MIC under setting [1] was 0.33 µM. Same read-out and setting: with `Cc1nc(-c2ccc(C(C)(C)C)cc2)nc(C)c1C(=O)N[C@@H](CCN)C(=O)N(C)[C@@H]1C(=O)N[C@@H](C)C(=O)N[C@H](C(=O)NCC#N)Cc2ccc(O)c(c2)-c2cc1ccc2OCCCNC(=N)N` (racemic) [Compound 596, rac-(8S,11S,14S)-N-(cyanomethyl)-18-(3-guanidinopropoxy)-3-hydroxy-11-methyl-14-[methyl-[rac-(2S)-4-amino-2-[[2-(4-tert-butylphenyl)-4,6-dimethyl-pyrimidine-5-carbonyl]amino]butanoyl]amino]-10,13-dioxo-9,12-diazatricyclo[13.3.1.12,6]icosa-1(18),2(20),3,5,15(19),16-hexaene-8-carboxamide] the figure was 0.5 µM; with `Cc1nc(-c2ccc(C(C)(C)C)cc2)nc(C)c1C(=O)N[C@@H](CCN)C(=O)N(C)[C@@H]1C(=O)N[C@@H](C)C(=O)N[C@H](C(=O)NCC#N)Cc2ccc(OCCCN)c(c2)-c2cc1ccc2O` (racemic) [Compound 597, rac-(8S,11S,14S)-3-(3-aminopropoxy)-N-(cyanomethyl)-18-hydroxy-11-methyl-14-[methyl-[rac-(2S)-4-amino-2-[[2-(4-tert-butylphenyl)-4,6-dimethyl-pyrimidine-5-carbonyl]amino]butanoyl]amino]-10,13-dioxo-9,12-diazatricyclo[13.3.1.12,6]icosa-1(18),2(20),3,5,15(19),16-hexaene-8-carboxamide], 0.26 µM; with `CCCCCOc1ccc(-c2nc(C)c(C(=O)N[C@@H](CCN)C(=O)N(C)[C@@H]3C(=O)N[C@@H](C)C(=O)N[C@H](C(=O)NCC#N)Cc4ccc(O)c(c4)-c4cc3ccc4OCCCN)c(C)n2)cc1` (racemic) [Compound 598, rac-(8S,11S,14S)-18-(3-aminopropoxy)-N-(cyanomethyl)-3-hydroxy-11-methyl-14-[methyl-[rac-(2S)-4-amino-2-[[4,6-dimethyl-2-(4-pentoxyphenyl)pyrimidine-5-carbonyl]amino]butanoyl]amino]-10,13-dioxo-9,12-diazatricyclo[13.3.1.12,6]icosa-1(18),2(20),3,5,15(19),16-hexaene-8-carboxamide], 0.094 µM.
